Read-outs that look alike come from different tables or passages of the source. Marks after values point to notes of the source that are not given here.
What was measured:
[1] = tested on: enterovirus-71 (Tainan/4643/98 strain); assay: organism not typed; assay type: cell-based
in vitro [2] = conditions: African green monkey
MERS-CoV (EMC strain) = assay: microbe, parasite or virus in culture; assay type: cell-based
[3] = tested on: tacaribe virus (TRVL11573 strain); assay: microbe, parasite or virus in culture; assay type: cell-based; conditions: for EC50: read-out: Tacaribe virus EC50 TRVL 11573 strain
[4] = tested on: dengue virus 2 (New Guinea C strain); assay: microbe, parasite or virus in culture; assay type: cell-based
[5] = tested on: measles virus (CC strain); assay: microbe, parasite or virus in culture; assay type: cell-based
in vitro [6] = conditions: human
[7] = tested on: chikungunya virus (S27 strain); assay: microbe, parasite or virus in culture; assay type: cell-based
in vitro [8] = conditions: African green monkey; remark: listed apart in the source
Vero cells = conditions: African green monkey
[9] = tested on: yellow fever virus (YFV 17D strain); assay: microbe, parasite or virus in culture; assay type: cell-based
in vitro [10] = conditions: dog
[11] = tested on: influenza A (H1N1) virus (California/07/2009 strain); assay: microbe, parasite or virus in culture; assay type: cell-based
[12] = tested on: human norovirus genogroup I NoV (Norwalk virus replicon) in HG23 cells; assay: Human norovirus antiviral assay, qRT PCR in HG23 NoV replicon cells; assay type: cell-based; conditions: for EC50: Norwalk virus
[13] = Cytotoxicity in the human norovirus replicon assay (HG23 cells); conditions: human, HG23 Nov replicon cells
[14] = Vero 76, read-out: EC50 enterovirus-71
[15] = Middle East respiratory syndrome-related coronavirus, Vero 76, read-out: MERS-CoV EC50 EMC strain
[16] = Mammarenavirus tacaribeense, Vero
[17] = Dengue virus, Huh-7, read-out: EC50 dengue virus 2
[18] = Measles morbillivirus, Vero 76, read-out: Measles EC50 CC strain
[19] = read-out: Measles EC50 CC strain
[20] = Chikungunya virus, Vero 76, read-out: EC50 chikungunya virus
[21] = read-out: EC50 chikungunya virus
[22] = read-out: Yellow fever virus CC50 Huh7, Neutral Red, YFV screen
[23] = Yellow fever virus, Huh-7, read-out: Yellow fever virus EC50 YFV 17D strain
[24] = read-out: Yellow fever virus EC50 YFV 17D strain
[25] = Influenza A virus, H1N1, MDCK, read-out: EC50 California/07/2009 strain
[26] = HG23 Nov replicon cells, qRT PCR intracellular RNA, read-out: EC50 human norovirus
[27] = read-out: MERS-CoV EC50 EMC strain
[28] = read-out: Yellow fever virus CC50 Huh7, Visual, YFV screen
[29] = read-out: MERS-CoV CC50 Vero 76, Neutral Red, MERS-CoV screen

Row | Compound | EC50 [1, 14] | CC50 (in vitro [2]; MERS-CoV CC50 Vero 76) | CC50 (in vitro [2]; Measles CC50 Vero 76) | EC50 (MERS-CoV (EMC strain); [15]) | EC50 [3, 16] | EC50 [4, 17] | EC50 ([4]; read-out: EC50 dengue virus 2) | EC50 [5, 18] | EC50 [5, 19] | CC50 (in vitro [6]; CC50) | CC50 (in vitro [6]; Yellow fever virus CC50 Huh7) | EC50 [7, 20] | CC50 (in vitro [8]; Tacaribe virus CC50 Vero) | CC50 (Huh7 cells; human) | CC50 (Huh7 cells; [22]) | EC50 [9, 23] | CC50 (in vitro [10]; CC50 MDCK) | EC50 [11, 25] | CC50 at 3 days [13] | CC50 (Vero 76 cells; [29]) | also measured
1 | OC[C@H]1O[C@@H](n2ccc3c(C#Cc4cccc(F)c4)ncnc32)[C@H](O)[C@@H]1O [3.1i, 6-((3-Fluorophenyl)ethynyl)-9-β-D-ribofuranosyl-7-deazapurine] | > 32 µM | 32 µM | 24 µM | > 32 µM | > 12 µM | 2.6 µM | 2.7 µM | 3.2 µM | 3.6 µM | 24 µM | 32 µM | > 32 µM | 12 µM | 22 µM | 30 µM | 1.2 µM |  |  |  |  | EC50 ([1]; read-out: EC50 enterovirus-71): > 28 µM; EC50 [3]: > 11 µM; EC50 [7, 21]: > 30 µM; CC50 (Vero cells): 11 µM; EC50 [9, 24]: 0.85 µM
2 | NC(=O)c1ncn([C@@H]2O[C@H](CO)[C@@H](O)[C@H]2O)n1 [Ribavirin, ribavirin, reference compound] |  |  |  |  | 9.2 µg/mL |  |  |  |  |  |  |  | > 1000 µg/mL |  |  |  | > 1000 µg/mL | 2.2 µg/mL |  |  | Tacaribe virus EC50 TRVL 11573 strain [3]: 7.8^d μg/mL; CC50 (in vitro [10]; CC50): > 4100 µM; CC50 (in vitro [8]; CC50): > 2950 µM; CC50 (Vero cells): > 3600 µM; Tacaribe virus CC50 Vero (Vero cells): 970^d μg/mL; EC50 California/07/2009 strain [11]: 2.4^d μg/mL; EC50 ([11]; Influenza A virus, H1N1, MDCK, read-out: EC50 Influenza A (H1N1)): 10.2 µM
3 | CCc1ncnc2c1c(C#CC1CC1)cn2[C@@H]1O[C@H](CO)[C@@H](O)[C@H]1O [3.1n, 6-Ethyl-7-cyclopropylethynyl-9-β-D-ribofuranosyl-7-deazapurine] | > 100 µM | 100 µM | > 100 µM | 10 µM | > 100 µM | 13 µM | > 8.3 µM | 64 µM | 33 µM |  |  | > 100 µM | > 100 µM |  | 21 µM |  | > 100 µM | > 100 µM | 0.342 µM | > 100 µM | activity against human norovirus in words [12]: no promising activity; EC50 [12, 26]: 62 nM; CC50 (in vitro [2]; CC50): > 100 µM; activity against MERS-CoV in words (MERS-CoV (EMC strain)): moderately active with low selectivity index; EC50 (MERS-CoV (EMC strain); [27]): 5.7 µM; CC50 (Huh7 cells; [28]): 100 µM
4 | OC[C@H]1O[C@@H](n2ccc3c(C#Cc4ccc(F)cc4)ncnc32)[C@H](O)[C@@H]1O [3.1h, 6-((4-Fluorophenyl)ethynyl)-9-β-D-ribofuranosyl-7-deazapurine] | > 39 µM | 32 µM | 28 µM | > 32 µM | 24 µM | > 32 µM | > 29 µM | 6.2 µM | 7.1 µM |  | 32 µM | > 36 µM | 24 µM |  | 30 µM | 2.2 µM |  |  | 38.5 µM | 29 µM | activity against human norovirus in words [12]: low nanomolar activity and high selectivity; EC50 [12, 26]: < 1 nM; EC50 ([1]; read-out: EC50 enterovirus-71): > 46 µM; CC50 (in vitro [2]; CC50): 36 µM; EC50 (MERS-CoV (EMC strain); [27]): > 29 µM; EC50 [3]: > 23 µM; EC50 [7, 21]: 32 µM; CC50 (Vero cells): 23 µM; EC50 [9, 24]: 2.3 µM
5 | CCc1ncnc2c1c(Br)cn2[C@@H]1O[C@H](CO)[C@@H](O)[C@H]1O [3.1q, 6-Ethyl-7-bromo-9-β-D-ribofuranosyl-7-deazapurine] | > 100 µM | > 100 µM |  | > 100 µM | > 100 µM | > 68 µM | > 47 µM | > 100 µM |  | 68 µM | > 100 µM |  |  | 47 µM | > 100 µM | > 100 µM | > 100 µM | > 100 µM |  | > 100 µM | 
6 | CCc1ncnc2c1c(Cl)cn2[C@@H]1O[C@H](CO)[C@@H](O)[C@H]1O [3.1p, 6-Ethyl-7-chloro-9-β-D-ribofuranosyl-7-deazapurine] | > 100 µM | > 100 µM |  | 100 µM | 100 µM | 32 µM | > 38 µM | 100 µM | > 100 µM | 68 µM | > 100 µM | > 100 µM |  | 38 µM | > 100 µM | > 100 µM | > 100 µM | > 100 µM |  | > 100 µM | EC50 (MERS-CoV (EMC strain); [27]): > 100 µM; EC50 [3]: > 100 µM
7 | C=Cc1cn([C@@H]2O[C@H](CO)[C@@H](O)[C@H]2O)c2ncnc(CC)c12 [3.1m, 6-Ethyl-7-vinyl-9-β-D-ribofuranosyl-7-deazapurine] | > 100 µM | > 100 µM |  | 22 µM | > 100 µM | 32 µM | > 19 µM | 25 µM | 43 µM |  |  | > 100 µM |  |  | 20 µM |  | > 100 µM | > 100 µM | 14.6 µM | > 100 µM | activity against human norovirus in words [12]: no promising activity; EC50 [12, 26]: 3350 nM; EC50 (MERS-CoV (EMC strain); [27]): 14 µM; CC50 (Huh7 cells; [28]): 4.6 µM
8 | C=C(OCC)c1ncnc2c1ccn2[C@@H]1O[C@H](CO)[C@@H](O)[C@H]1O [3.1b, 6-(1-Ethoxyvinyl)-9-β-D-ribofuranosyl-7-deazapurine] | > 84 µM | 52 µM | > 100 µM |  | 44 µM |  |  | > 100 µM | 64 µM | 8.5 µM | 28 µM |  | 100 µM | 8.6 µM | 22 µM | > 28 µM |  |  | 60.5 µM | 86 µM | EC50 ([12]; HG23, read-out: EC50 human norovirus): 7 nM; EC50 ([1]; read-out: EC50 enterovirus-71): 90 µM; activity against MERS-CoV in words (MERS-CoV (EMC strain)): moderately active with low selectivity index; EC50 [3]: 39 µM; CC50 (Vero cells): 99 µM; CC50 (Vero 76 cells; African green monkey): 100 µM; EC50 [9, 24]: > 22 µM
9 | CCc1ncnc2c1c(I)cn2[C@@H]1O[C@H](CO)[C@@H](O)[C@H]1O [3.1o, 6-Ethyl-7-iodo-9-β-D-ribofuranosyl-7-deazapurine] | > 100 µM | > 100 µM |  | > 100 µM | > 100 µM | > 68 µM | > 64 µM | 100 µM | > 100 µM | 68 µM | > 100 µM | > 100 µM |  | 64 µM | 85 µM | > 100 µM | > 100 µM | > 100 µM |  | > 100 µM | EC50 (MERS-CoV (EMC strain); [27]): 68 µM; EC50 [9, 24]: > 85 µM
10 | Nc1ccn([C@@H]2O[C@H](CO)[C@@H](O)[C@H]2F)c(=O)n1 [2′-Fluoro-2′-deoxycytidine, 2′-fluoro-2′-deoxycytidine, reference compound] |  |  | > 100 µg/mL |  |  |  |  | 1 µg/mL |  |  |  |  |  |  |  |  |  |  |  |  | Measles EC50 CC strain [5]: 0.95^d μg/mL
11 | C[C@@]1(O)[C@H](O)[C@@H](CO)O[C@H]1n1ccc(N)nc1=O [2′C Methyl Cytidine, 2′-C-Methylcytidine, reference compound] |  |  |  |  |  |  |  |  |  |  |  |  |  |  |  |  |  |  | > 25 µM |  | EC50 [12, 26]: 1570 nM
12 | C#Cc1cn([C@@H]2O[C@H](CO)[C@@H](O)[C@H]2O)c2ncnc(CC)c12 [3.1l, 6-Ethyl-7-ethynyl-9-β-D-ribofuranosyl-7-deazapurine] | > 100 µM | > 100 µM |  |  | > 100 µM | > 100 µM | > 51 µM | 72 µM | > 100 µM |  | > 100 µM | > 100 µM |  | 51 µM | 92 µM | > 100 µM | > 100 µM | 0.34 µM | 0.455 µM | > 100 µM | activity against human norovirus in words [12]: no promising activity; EC50 [12, 26]: 393 nM; EC50 [9, 24]: > 92 µM; EC50 ([11]; read-out: EC50 California/07/2009 strain): 0.52 µM

Reference: patent US20250144125A1 (priority 2021, published 2025)
